Data published in US9018218B2 (priority 2010, dated 2015).
Like-named read-outs stand apart in the source and are kept apart here.

Experiments:
[1] = test system: cucumber downy mildew; assay: fungicidal activity in vivo, cucumber downy mildew on cucumber seedling leaves; conditions: spray, investigated after 5 days
Description: (§1) The procedure of determination of fungicidal activity in vivo is as follow:
The compounds of the present invention were diluted to given concentrations and sprayed on the leaves of cucumber seedling at the same stage, on which growing point were cut off and two euphyllas were kept meanwhile, water were set as the blank control, three replicates were set for each treatment. Cucumber downy mildew spore suspension were inoculated on the second day after treatment, then, the plants were placed in a chamber (temperature: day 25° C., and night 20° C., relative humidity 95 to 100%), and then placed in greenhouse (25±2° C.) 24 hours later and routine management was conducted. The test results were investigated after 5 days, disease grading refers to the national standard of the People's Republic of China [The test criteria of pesticide field trial], the control effect was calculated by disease index.

[2] = test system: wheat powdery mildew; assay: fungicidal activity in vivo, wheat powdery mildew on wheat seedling leaves; conditions: spray, investigated after 7 days
Description: as §1
The compounds of the present invention were diluted to given concentrations and sprayed on the leaves of wheat seedling at the same two-leaf stage, meanwhile, water were set as the blank control, three replicates were set for each treatment. Wheat powdery mildew spore suspension were inoculated on the second day after treatment, and then placed in greenhouse (25±2° C.) and routine management was conducted. The test results were investigated after 7 days, disease grading refers to the national standard of the People's Republic of China [The test criteria of pesticide field trial], the control effect was calculated by disease index.

[3] = test system: wheat rust; conditions: in vivo
[4] = test system: rice blast; assay: microbe, parasite or virus in culture; format: cell-based; conditions: for rice blast inhibition rate %: in vitro spore germination; for inhibition at 25 µg/mL / inhibition at 2.8 µg/mL / inhibition at 8.3 µg/mL: Pyricularia oryzae, read-out: rice blast inhibition rate %
[5] = 400 mg/L, spray, investigated after 7 days
[6] = 100 mg/L, spray, investigated after 7 days

Structure (SMILES) | cucumber downy mildew control % ([1]; 50 mg/L) | cucumber downy mildew control % ([1]; 100 mg/L) | cucumber downy mildew control % ([1]; 400 mg/L) | wheat powdery mildew control % ([2]; 50 mg/L) | wheat powdery mildew control % ([2]; 100 mg/L) | wheat powdery mildew control % ([2]; 400 mg/L) | wheat rust control % [3, 5] | wheat rust control % [3, 6] | rice blast inhibition rate % ([4]; 2.8 mg/L) | rice blast inhibition rate % ([4]; 8.3 mg/L) | rice blast inhibition rate % ([4]; 25 mg/L) | wheat rust control % ([3]; 50 mg/L, spray, investigated after 7 days) | wheat rust control % [3] | inhibition at 25 µg/mL [4] | melting point | inhibition at 2.8 µg/mL [4] | inhibition at 8.3 µg/mL [4]
CCCCc1c(C)nc(Nc2ccccc2)nc1OC(=O)OC [Compound 1] | 0% | 20% | 95% | 98% | 100% | 100% | – | – | – | – | – | – | – | – | – | – | –
CCCCc1c(C)nc(Nc2ccc(OC(F)(F)F)cc2)nc1OC(=O)OC [Compound 13] | – | – | 30% | – | – | 95% | 0% | – | – | – | – | – | – | – | – | – | –
CCCCc1c(C)nc(Nc2ccccc2)nc1OC(=O)OC(C)C [Compound 46] | – | 10% | 95% | 98% | 100% | 100% | 100% | 0% | 80% | 100% | 100% | – | – | – | – | – | –
CCCCc1c(C)nc(Nc2ccc(OC(F)(F)F)cc2)nc1OC(=O)OC(C)C [Compound 53] | – | – | 95% | – | – | 50% | 0% | – | – | – | 50% | – | – | – | – | – | –
CCCCc1c(C)nc(Nc2ccccc2)nc1OC(=O)OCC [Compound 75] | – | 30% | 95% | 50% | 98% | 95% | 98% | 60% | – | – | 50% | 30% | – | – | – | – | –
CCCCOC(=O)Oc1nc(Nc2ccccc2)nc(C)c1CCCC [Compound 101] | – | – | 70% | 70% | 95% | 100% | 98% | 0% | – | – | 50% | – | – | – | – | – | –
CCCCc1c(C)nc(Nc2ccccc2)nc1OC(=O)OCc1ccccc1 [Compound 156] | – | – | 30% | – | 80% | 100% | – | – | – | – | – | – | 0% | 80% | – | – | –
CCCCc1c(C)nc(Nc2ccccc2)nc1OC(=O)OC(C)c1ccccc1 (stereo not drawn) [Compound 173] | – | – | 50% | – | 80% | 100% | 0% | – | – | – | 50% | – | – | – | – | – | –
Cc1nc(Nc2ccccc2)nc(OC(=O)OC(C)C)c1C [Compound 253] | – | – | 20% | – | – | 0% | 95% | – | 50% | 80% | 100% | – | – | – | – | – | –
Cc1cc(OC(=O)OC(C)C)nc(Nc2ccccc2)n1 [Compound 270] | – | – | 0% | – | – | 0% | 60% | – | – | 0% | 100% | – | – | – | – | – | –
CC(C)OC(=O)Oc1nc(Nc2ccccc2)nc2c1CCC2 [Compound 393] | – | – | 0% | – | – | 0% | – | – | – | – | – | – | 70% | 100% | 124 to 126 °C | 0% | 80%
CC(C)OC(=O)Oc1nc(Nc2ccccc2)nc2c1CCCC2 [Compound 427] | – | – | 0% | – | – | 0% | 98% | – | – | 80% | 100% | – | – | – | – | – | –
CC(C)OC(=O)Oc1nc(Nc2ccc(F)c(F)c2F)nc2c1CCCC2 [Compound 443] | – | – | 90% | – | – | 0% | – | – | – | – | – | – | 0% | 100% | 124 to 126 °C | 50% | 100%
CCCCc1c(C)nc(N(C)C)nc1OC(=O)OCC [Compound K1, reference compound] | – | – | 0% | – | 0% | 100% | – | – | – | – | – | – | 0% | 100% | – | 0% | 80%
COC(=O)Oc1cc(C2CC2)nc(Nc2ccccc2)n1 [Compound K2, reference compound] | – | – | 0% | – | – | 0% | – | – | – | – | – | – | 0% | 80% | – | – | –
